{"source": "patent US20220380721A1", "about": "“METHOD FOR COUPLING ANTIBODY TO SURFACE OF CELL AND METHOD FOR APPLYING CELL COUPLED WITH THE ANTIBODY” (Xiamen Nuokangde Biological Technology Co., Ltd., priority 2019, published 2022)", "test_system": "NK92 cells", "assay": "Metabolic incorporation of azido sialic acid in NK92 cells, detected with FITC-Stau by confocal laser microscope", "type": "cell-based", "details": "NK92 cells cultured with 100 μM 9N3-SA for 24-48 hours; FITC-Stau 100 μM, 37° C., 2-4 hours; compared with cells not modified", "experimental": "NK92 cells normally cultured are distributed into a 24-well plate and then cultured in a NK92 cell medium containing 9N3-SA with a final concentration of 100 μM for 24-48 hours. The NK92 cells are washed by PBS for 3 times, and the NK92 cell medium containing 9N3-SA is then replaced by a normal NK92 medium to obtain NK92 cells modified with the azide groups. In order to verify that the NK92 cells have been modified with the azide groups, in this embodiment, Fluorescein-Stau (FITC-Stau) (as shown in FIG. 3), a ligand molecule connected to fluorescein and able to orthogonally react with the azide groups, is synthesized. The FITC-Stau is added into a medium of the NK92 cell modified with the azide groups with a final concentration of 100 μM, incubated at 37° C. for 2-4 hours, and washed with PBS for 3 times, and fluorescence on the cell surface is then observed by a confocal laser microscope.", "data": [{"smiles": "COC(=O)[C@@]1(O)C[C@@H](O)[C@@H](NC(C)=O)C([C@H](O)[C@H](O)CN=[N+]=[N-])O1", "note": "(stereo partly shown) [9N3-SA]", "values": [{"measurement": "fluorescence on the cell surface after FITC-Stau labeling", "value": "strong fluorescence signal"}]}]}
